# Laboratory results from PMC7583046, “The Paralogue of the Intrinsically Disordered Nuclear Protein 1 Has a Nuclear Localization Sequence that Binds to Human Importin α3” (International Journal of Molecular Sciences, 2020).
# How the values were obtained:
# Impα3 [1] = conditions: 50 mM phosphate pH 7.0, 298 K; NLS-NUPR1L 10 μM, importin 4 μM
# Method: (§1) Fluorescence spectra were collected on a Cary Varian spectrofluorometer (Agilent, Santa Clara, CA, USA), interfaced with a Peltier unit. All experiments were carried out at 298 K. Following the standard protocols used in our laboratories, the samples were prepared the day before and left overnight at 278 K; before experiments, samples were left for 1 h at 298 K. A 1 cm pathlength quartz cell (Hellma, Kruibeke, Belgium) was used. The concentration of NLS-NUPR1L was 10 μM and those of both importins were 4 μM. Samples containing the isolated peptide, the isolated importin species, and a mixture of both (at those indicated concentrations) were prepared. Experiments were acquired in 50 mM phosphate buffer (pH 7.0). For the experiments with intact NUPR1L, a concentration of 15 μM (in protomer units) was used and that of each importin was 5 μM.
# (§2) Protein samples were excited either at 280 or 295 nm. The other experimental parameters and the buffers used have been described elsewhere. […]
# (§3) Far-UV CD spectra were collected on a Jasco J810 spectropolarimeter (Jasco, Tokyo, Japan) with a thermostated cell holder, and interfaced with a Peltier unit at 298 K. The instrument was periodically calibrated with (+)-10-camphorsulphonic acid. […] The concentration of each polypeptide (importin species and either NLS-NUPR1L or intact NUPR1L) was the same as that used in the fluorescence experiments (Section 4.4). […]
# ∆Impα3 = conditions: 50 mM phosphate pH 7.0, 298 K; NUPR1L 15 μM with importin 5 μM, or NLS-NUPR1L 10 μM with importin 4 μM
# Method: as §1, §2, §3
# [2] = target: T1, ∆Impα3 (Impα3 without IBB, residues 64-521) (Homo sapiens, UniProt O00629); test: Isothermal titration calorimetry, binding to ∆Impα3; conditions: Tris 50 mM pH 8, 298 K
# T1 construct: codon-optimized, His-tagged ∆Impα3 (residues 64-521) were carried out using BL21 (DE3) cells; His-tag; made in house; host or cells: E. coli BL21 (DE3)
# T1 sequence (O00629 64-521): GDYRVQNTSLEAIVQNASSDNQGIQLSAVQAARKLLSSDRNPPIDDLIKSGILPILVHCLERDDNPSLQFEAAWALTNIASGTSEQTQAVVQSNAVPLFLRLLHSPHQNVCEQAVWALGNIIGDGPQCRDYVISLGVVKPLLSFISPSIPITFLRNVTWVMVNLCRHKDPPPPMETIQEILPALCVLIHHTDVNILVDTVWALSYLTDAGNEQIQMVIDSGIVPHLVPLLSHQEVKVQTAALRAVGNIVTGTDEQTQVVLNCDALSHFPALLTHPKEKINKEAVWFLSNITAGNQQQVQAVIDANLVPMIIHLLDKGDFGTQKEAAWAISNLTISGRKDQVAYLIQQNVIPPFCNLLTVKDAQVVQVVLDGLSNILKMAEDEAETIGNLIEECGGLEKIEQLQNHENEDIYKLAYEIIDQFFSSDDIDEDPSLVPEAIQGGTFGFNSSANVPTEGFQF
# Text: Figure 4 Binding of NLS-NUNPR1L to both importin species: (A) Titration curve monitoring the changes of Impα3 fluorescence at 340 nm in the presence of NLS-NUPR1L, after excitation at 280 nm. (B) Titration curve monitoring the changes of ∆Impα3 fluorescence at 340 nm in the presence of NLS-NUPR1L, after excitation at 280 nm. […] (C) Calorimetric binding isotherms (ligand normalized heat effect per injection as a function of the ligand/protein molar ratio) for the interaction of NLS-NUPR1L with Impα3 (left) and ∆Impα3 (right) are shown, with the thermogram (raw thermal power data as a function of time) at the top of each panel. Binding parameters were estimated by non-linear least squares regression data analysis of the interaction isotherms applying a single ligand binding site model implemented in Origin 7.0. (OriginLab, Northampton, MA, USA).
# The experimental set-up and data processing of ITC experiments have been described previously. […] The temperature for all experiments was 298 K. The experiments were analyzed applying a model considering a single ligand binding site (1:1 stoichiometry for the NLS-NUPR1L/Impα3 (or ∆Impα3) interaction) implemented in Origin 7.0 (OriginLab, Northampton, MA, USA).
# Impα3 [3] = conditions: 35 μM peptide, pH 7.2, 50 mM deuterated Tris, 1-1 echo sequence
# Method: The NMR experiments were acquired at 283 K on a Bruker Avance spectrometer (Bruker GmbH, Karlsruhe, Germany), equipped with a triple resonance probe and z-pulse field gradients. All experiments with NLS-NUPR1L were carried out at pH 7.2, 50 mM deuterated Tris buffer (not corrected for isotope effects). The spectra were calibrated with TSP ((trimethylsilyl)-2,2,3,3-tetradeuteropropionic acid), by considering pH-dependent changes of its chemical-shifts; probe temperature was calibrated with methanol.
# Measurements of the T2 (transverse relaxation time) provide a convenient method to determine the molecular mass of a macromolecule, as the correlation time, τc, is approximately equal to 1/(5 × T2). We measured the T2 of one of the indole protons (Section 2.2.1) for NLS-NUPR1L (at 35 μM concentration) in isolation and in the presence of Impα3 (at a final concentration of 7 μM) with the 1-1 echo sequence. The calculation of the T2 was carried out as described.
substance,measurement,setting,value
Ac-RTRREQALRTNWPAPGGHERKVAQ-NH2 [NLS-NUPR1L],spectral changes upon binding to Impα3 (fluorescence and CD),Impα3 [1],there were changes in the spectra upon addition of NLS-NUPR1L to each of the importin species
same,spectral changes upon binding to ∆Impα3 (fluorescence and/or far-UV CD),∆Impα3,there were changes in the spectra upon addition of NLS-NUPR1L to each of the importin species
same,"n, stoichiometry (ITC), ∆Impα3",[2],0.75 ± 0.06
same,"∆H (ITC), ∆Impα3",[2],-2.4 ± 0.5 kcal/mol
same,"T2 of most up-field indole signal, in the presence of Impα3","Impα3 [3]; 7 μM Impα3, 283 K",36.7 ms
same,"T2 of most up-field indole signal, isolated peptide",Impα3 [3]; 283 K,62.2 ms
